The text below walks through data of patent US20240002391A1, “4-ALKOXYPYRROLO[2,1-F][1,2,4]TRIAZINES AND PREPARATION AND USES THEREOF” (BioSplice Therapeutics, Inc., priority 2022, published 2024).

For the test, the target named is recombinant DYRK1A kinase (Homo sapiens (Human), UniProt Q13627). Description: DYRK1A kinase assay (Ser/Thr 18 peptide Z-lyte FRET). It counts as biochemical. The conditions noted are these: DYRK1A kinase activity, Z-lyte Ser/Thr 18 peptide, 15 μM ATP; method text calls the value IC50; read-out: EC50 (the source's name). An outline of the steps: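 Compounds were tested as 11-point, threefold dilution series starting at 10 μM against recombinant enzyme in a 1 h room-temperature reaction with 15 μM ATP and 4 μM peptide substrate. Phosphorylation is read by protease-coupled FRET, and IC50 values come from curve fitting.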
Turning to `COc1nc(N[C@H]2C[C@@](C)(NC(C)=O)C2)nn2ccc(-c3ccc4ncccc4c3)c12` [Compound 288, N-(cis-3-((4-Methoxy-5-(quinolin-6-yl)pyrrolo[2,1-f][1,2,4]triazin-2-yl)amino)-1-methylcyclobutyl)acetamide], the IC50 came to 2.6 nM.
The same measure for `CCO[C@H]1C[C@@H](Nc2nc(OC)c3c(-c4ccc5ncnn5c4)ccn3n2)C1` [Compound 555, 5-([1,2,4]Triazolo[1,5-a]pyridin-6-yl)-N-(cis-3-ethoxycyclobutyl)-4-methoxypyrrolo[2,1-f][1,2,4]triazin-2-amine]: 5 nM.
The same measure for `COc1nc(N[C@@H]2CN(C)C[C@@H]2F)nn2ccc(-c3ccc4nc(C)n(CC(F)F)c4c3)c12` [Compound 114, 5-(1-(2,2-Difluoroethyl)-2-methyl-1H-benzo[d]imidazol-6-yl)-N-((3R,4S)-4-fluoro-1-methylpyrrolidin-3-yl)-4-methoxypyrrolo[2,1-f][1,2,4]triazin-2-amine]: 1.9 nM.
The same measure for `CC[C@]1(O)CC[C@H](Nc2nc(OC)c3c(-c4ccc5ncnn5c4)ccn3n2)CC1` [Compound 567, (1r,4r)-4-((5-([1,2,4]Triazolo[1,5-a]pyridin-6-yl)-4-methoxypyrrolo[2,1-f][1,2,4]triazin-2-yl)amino)-1-ethylcyclohexan-1-ol]: 3.7 nM; for `COc1nc(NC2CC3(CCN(C(C)=O)CC3)C2)nn2ccc(-c3ccc4nnn(C)c4c3)c12` [Compound 227, 1-(2-((4-Methoxy-5-(1-methyl-1H-benzo[d][1,2,3]triazol-6-yl)pyrrolo[2,1-f][1,2,4]triazin-2-yl)amino)-7-azaspiro[3.5]nonan-7-yl)ethan-1-one]: 3.6 nM.
In the case of `COc1nc(N[C@H]2CC[C@](C)(O)CC2)nn2ccc(-c3ccc4nc(C)n(CCO)c4c3)c12` [Compound 172, trans-4-((5-(1-(2-Hydroxyethyl)-2-methyl-1H-benzo[d]imidazol-6-yl)-4-methoxypyrrolo[2,1-f][1,2,4]triazin-2-yl)amino)-1-methylcyclohexan-1-ol], the IC50 was found to be 2.5 nM.
The figure for `COc1nc(N[C@@H]2[C@@H]3COC[C@@H]32)nn2ccc(-c3ccn4nccc4c3)c12` [Compound 80, N-((1R,5S,6s)-3-Oxabicyclo[3.1.0]hexan-6-yl)-4-methoxy-5-(pyrazolo[1,5-a]pyridin-5-yl)pyrrolo[2,1-f][1,2,4]triazin-2-amine] is 56.2 nM; for `CNC(=O)c1cnc2ccc(-c3ccn4nc(N[C@H]5CC[C@](C)(OC)CC5)nc(OC)c34)cn12` [Compound 445, 6-(4-Methoxy-2-(((1r,4r)-4-methoxy-4-methylcyclohexyl)amino)pyrrolo[2,1-f][1,2,4]triazin-5-yl)-N-methylimidazo[1,2-a]pyridine-3-carboxamide] it is 2.1 nM.
`COc1nc(NC2CCN(C3COC3)CC2)nn2ccc(-c3ccc4nccnc4c3)c12` [Compound 365, 4-Methoxy-N-(1-(oxetan-3-yl)piperidin-4-yl)-5-(quinoxalin-6-yl)pyrrolo[2,1-f][1,2,4]triazin-2-amine]: the IC50 was 2.8 nM.
For `COc1nc(N[C@H]2CC[C@@H](NC(C)=O)CC2)nn2ccc(-c3ccc4nccn4c3)c12` [Compound 53, N-(cis-4-((5-(Imidazo[1,2-a]pyridin-6-yl)-4-methoxypyrrolo[2,1-f][1,2,4]triazin-2-yl)amino)cyclohexyl)acetamide], the IC50 worked out at 0.7 nM.
The figure for `COc1nc(N[C@@H]2CN(C(C)=O)C[C@@H]2F)nn2ccc(-c3ccc4nnn(CC(F)(F)F)c4c3)c12` [Compound 912, 1-((3S,4R)-3-Fluoro-4-((4-methoxy-5-(1-(2,2,2-trifluoroethyl)-1H-benzo[d][1,2,3]triazol-6-yl)pyrrolo[2,1-f][1,2,4]triazin-2-yl)amino)pyrrolidin-1-yl)ethan-1-one] is 0.8 nM; for `COc1nc(NC2CCN(CC(F)(F)F)CC2)nn2ccc(-c3ccc4nccnc4c3)c12` [Compound 363, 4-Methoxy-5-(quinoxalin-6-yl)-N-(1-(2,2,2-trifluoroethyl)piperidin-4-yl)pyrrolo[2,1-f][1,2,4]triazin-2-amine] it is 40.1 nM.
